From patent US7378387B2, “Method of suppressing immune response by reducing intracellular content of glutathione in macrophages and monocytes” (Ajinomoto Co., Inc., priority 1997, dated 2008) come the findings set out here.

Experiment [1] relates to spontaneous onset of insulin-dependent diabetes mellitus. As to the kind of experiment: Onset of diabetes mellitus in NOD mice dosed at age 3 to 6 and 9 to 11 weeks (Example 24). Particulars: doses as in the table line, 15 times in total, judged on week 22, saline 60. Type of experiment: in vivo. The source says: (§1) NOD mice purchased from Nippon Clair, Co. were naturally mated together. Among the off spring mice, a colony of NOD mice with a high frequency of the spontaneous onset of insulin-dependent diabetes mellitus was established. Female NOD mice from the colony were used for the present experiment. […] Urine glucose was detected, using Uropaper (BM Test Glucose 5000, manufactured by Yamanouchi Pharmaceuticals, Co. Ltd.). The onset was judged on week 22.

Experiment [2] has as its system IL-12. As to the kind of experiment: IL-12 production from macrophages induced through administration (Example 9, Table 1). Type of experiment: in vivo, DBA/2 mice. The note with it: LPS 100 ng/ml, IFNγ 100 units/ml. How it is done:
The amount of IL-12 was determined through bioassay using cells of human T cell strain 2D6 (J. Leukocyte Biology, vol. 61, p. 346, 1997).
2D6 cells which had been incubated in an RPMI 1640 medium containing 500 pg/ml of recombinant human IL-12, 50 μM of 2-mercaptoethanol and 10% FCS (fetal calf serum) were moved to a tube, and centrifugally washed three times with the above-mentioned medium without IL-12 and cell density was adjusted to 1×10^5/ml. The cell suspension was added in an amount of 100 μl each to a 96-well flat bottom plate containing a sample serially diluted in advance with an RPMI 1640 medium containing 50 μM of 2-mercaptoethanol and 10% FCS in an amount of 100 μl each. Subsequently, the mixture was charged into a 5% […] incubator of 37° C., and incubated for 48 hours. For final 6 hours, ^3H-TdR was pulsed (a substance adjusted to 370 kBq/ml in an RPMI 1640 medium containing 50 μM of 2-mercaptoethanol and 10% FCS was added in an amount of 50 μl each). The cells a harvested, and the radioactivity was measured using a β counter (Matrix 96, supplied by Packard).
(§2) The increase in the amounts of oxidative macrophages can easily be determined visually from the fact that almost no reaction product with monochlorobimane is observed, namely, a gray or blue image is provided, and the increase in the amounts of reductive macrophages from the fact that a red or yellow image is provided respectively. […] Meanwhile, the same examination was conducted by harvesting peritoneal exudate cells after 20 hours of the administration of 2 mg of N-acetylcystine (NAC).
(§3) Thus, the peritoneal exudate adherent cells were incubated in the following manner, and the amounts of NO and IL-12 produced in the culture supernatant were measured. With respect to the amount of IL-6, the amount of IL-6 produced spontaneously in the absence of a stimulator was measured.
(§4) Cells: The peritoneal exudate adherent cells obtained by the stimulation, namely, the macrophages were added to a 96-well microplate in an amount of 1×10^5 cells/200 μl each.
(§5) Medium: Phenol red-free RPMI 1640: 200 μl/well
(§6) LPS: Lipopolysaccharide (made by Sigma Co.) (origin: E. coli) 100 ng/ml

The test system of experiment [3] is spontaneous onset of insulin-dependent diabetes mellitus. As to the kind of experiment: Onset of diabetes mellitus in NOD mice dosed at age 3 to 6 weeks (Example 23). It is filed as in vivo. The note with it: three times per week, nine times; for Frequency (%) of onset of diabetes mellitus, on age 18 weeks: saline 50; for Frequency (%) of onset of diabetes mellitus, on age 22 weeks: saline 80. Here is the method: as §1, with “Chemical agents were administered intraperitoneally, unless otherwise stated. […] (NAC)2 and (NAC-OMe)2 were at a single dose of 20 μg/animal; and NAC and GSHOEt were at a single dose of 2 μg/animal; and a single dose of lentinan” for “The onset”, “0.1 mg/kg.” for “judged on week 22.”

Experiment [4] concerns adjuvant-induced arthritis. As to the kind of experiment: Adjuvant-induced arthritis (AA) in rats, joint swelling (Examples 18 and 19). Type of experiment: in vivo, Lewis rats. Here is the method: Adjuvant-induced arthritis was triggered in Lewis rats in a conventional manner; and the effects of chemical agents were examined in the animals. Adjuvant-induced arthritis is well known as an experimental arthritis inducible in rats [Taurog et al., Meth. Enzymol. 162, 339-355 (1988)]. […] An adjuvant is administered at 1 mg/0.1 ml per rate at a site of caudal root. The edema reaches its peak about 2 to 3 weeks after the administration of the adjuvant. The edema is triggered by inflammatory infiltration of monocytes. Swollen joints are measured with a micrometer every day; comparing the diameters of the joints prior to and after adjuvant administration and after initiation of the treatment with chemical agents with the diameters of the joints in the control group, the effects of the chemical agents were expressed as the ratio in % of joint swelling in the experimental groups to joint swelling in the control group. The effects were determined on day 15 after adjuvant administration. The chemical agents were given, starting the day next to the day of adjuvant administration, and every 3 days thereafter.
A single dose is 1 mg/kg for (NAC)2 and (NAC-OMe)2; 100 mg/kg for NAC; and 0.1 mg/kg for lentinan.
Adjuvant-induced arthritis was induced in Lewis rats in a conventional manner. In the same manner as in Example 11, the effects of chemical agents were examined in these rats. The conditions were the same as described above.

Experiment [5] concerns peritoneal exudate cells (macrophages). As to the kind of experiment: Induction of oxidative or reductive macrophages by administration, monochlorobimane/ACAS (Example 9). Type of experiment: in vivo, DBA/2 mice. The note with it: for type of macrophages induced (monochlorobimane, ACAS): Day 1 and Day 2, cells harvested 20 hours later, 20 μg (NAC-OMe)2 or (NAC)2, 10 μg acetylgliotoxin, 2 mg NAC intraperitoneally, 40 μg dexamethasone subcutaneously. How it is done: as §2, with “This was clarified by harvesting peritoneal exudate cells 20 hours after the completion of the administration, adhering the cells to the plastic surface, then reacting the cells with 10 μM of monochlorobimane at 37° C. for 30 minutes, and analyzing the reaction product with ACAS. The” for “The”

The test system of experiment [6] is NO. As to the kind of experiment: NO production from macrophages induced through administration (Example 9, Table 1). Particulars: LPS 100 ng/ml, IFNγ 100 units/ml. It is filed as in vivo, DBA/2 mice. Here is the method: A stimulator was added to 1×10^5 MΦ, and the incubation was conducted at 37° C. for 2 days in a CO2 incubator. After the completion of the centrifugation, the culture supernatant was collected.
One hundred microliters of a Griess-Romijn reagent (supplied by Waco Pure Chemical Industries, Ltd.) adjusted to a concentration of 50 mg/ml in distilled water were added to 100 μl of the culture supernatant, and the reaction was conducted at room temperature for 15 minutes. After the completion of reaction, an absorbance of 540 nm was measured. NaNO2 was used as a standard.
as §2, with “This was clarified by harvesting peritoneal exudate cells 20 hours after the completion of the administration, adhering the cells to the plastic surface, then reacting the cells with 10 μM of monochlorobimane at 37° C. for 30 minutes, and analyzing the reaction product with ACAS. The” for “The”
as §3, §4, §5, §6

Where [7] appears, read: Table 3, day 15 after adjuvant, every 3 days, single dose 1 mg/kg (NAC)2 and (NAC-OMe)2, 100 mg/kg NAC, 0.1 mg/kg lentinan.

On to `CC(=O)N[C@@H](CS)C(=O)O` [NAC, N-acetylcysteine, reference compound], for which the “Frequency (%) of onset of diabetes mellitus” value in experiment [1] (oral) was 40%. Besides, the “IL-12, amount produced relative to that of control group” value (shortened to “IL-12, amount produced relative to that”) in experiment [2] is on record as 920%. The “Frequency (%) of onset of diabetes mellitus, on age 18 weeks” value (shortened to “Frequency (%) of onset … on age 18 weeks”) is given as 10% in experiment [3] (intraperitoneal) and 30% in experiment [3] (oral). Besides, the “Frequency (%) of onset of diabetes mellitus, on age 22 weeks” value (“Frequency (%) of onset … on age 22 weeks” for short) in experiment [3] (intraperitoneal) came out at 20%; in experiment [3] (oral), 40%. For the same molecule, the “Ratio in % of joint swelling in experimental groups to joint swelling in control group” value (“Ratio in % of joint swelling” below) in experiment [4] (setting [7]) came out at 132%; in experiment [4] (Table 4, oral) it was 142%. Also, in experiment [5], the “type of macrophages induced (monochlorobimane, ACAS)” value (“type of macrophages induced” below) is “reductive macrophages were induced”. Besides, the “NO, amount produced relative to that of control group” value (“NO, amount produced relative to that” for short) in experiment [6] came out at 172%.
In the case of `CC(=O)N[C@@H](CSSC[C@H](NC(C)=O)C(=O)O)C(=O)O` [(NAC)2, N,N′-diacetylcystine], the “IL-12, amount produced relative to that” value in experiment [2] was determined as 15%. In experiment [3] (intraperitoneal), the “Frequency (%) of onset … on age 18 weeks” value came out at 60%. Moreover, the “Frequency (%) of onset … on age 22 weeks” value in experiment [3] (intraperitoneal) came to 80%. Moreover, the “Ratio in % of joint swelling” value in experiment [4] (setting [7]) amounted to 96%; in experiment [4] (Table 4, intravenous) it was 95%. Moreover, in experiment [5], the “type of macrophages induced” value is “Oxidative macrophages were induced”. Further, the “NO, amount produced relative to that” value in experiment [6] is 18%.
For `COC(=O)[C@H](CSSC[C@H](NC(C)=O)C(=O)OC)NC(C)=O` [(NAC-OMe)2, N,N′-diacetylcystine dimethyl ester], the “Frequency (%) of onset of diabetes mellitus” value in experiment [1] (intraperitoneal) is listed as 70%. In experiment [2], the “IL-12, amount produced relative to that” value is given as 11%. In experiment [3] (intraperitoneal), the “Frequency (%) of onset … on age 18 weeks” value came to 70%. Also, the “Frequency (%) of onset … on age 22 weeks” value in experiment [3] (intraperitoneal) is 80%. For the same molecule, the “Ratio in % of joint swelling” value in experiment [4] (setting [7]) was 50%; in experiment [4] (Table 4, intravenous), 42%. For the same molecule, the “type of macrophages induced” value in experiment [5] is listed as “Oxidative macrophages were induced”. For the same molecule, in experiment [5] (intraperitoneally 20 μg/0.5 ml/h each, twice a week for three weeks, 9-11 weeks of age), the “induction of oxidative macrophages on ACAS” value is recorded as “induction of oxidative macrophages was confirmed”. Also, the “NO, amount produced relative to that” value in experiment [6] is reported as 12%.
As for `CCOC(=O)CNC(=O)[C@H](CS)NC(=O)CC[C@H](N)C(=O)O` [GSH-OEt, glutathione monoethyl ester], the “Frequency (%) of onset of diabetes mellitus” value in experiment [1] (intraperitoneal) stood at 0%. Further, in experiment [3] (intraperitoneal), the “Frequency (%) of onset … on age 18 weeks” value is listed as 0% and the “Frequency (%) of onset … on age 22 weeks” value is reported as 5%.
